Measured values: patent US12239643B2, “Therapeutic agent for inflammatory diseases, autoimmune diseases, fibrotic diseases, and cancer diseases” (MEIJI SEIKA PHARMA CO., LTD., priority 2018, dated 2025)

system: PDE4; assay: Evaluation of PDE4 inhibitory activity, scintillation proximity assay; assay type: biochemical; conditions: scintillation proximity assay; class symbols of Evaluation 1; read-out: PDE4 Inhibitory Activity (concentration for the inhibition rate of 50%, IC50), Evaluation 1
Protocol: The BDE4 inhibitory activity was measured using scintillation proximity assay (SPA) as follows. First, a test compound dissolved in dimethyl sulfoxide was diluted 1:10 in reaction buffer solution which contained 50 mM of Tris-HCl with pH 7.4, 8.3 mM of MgCl2, 1.7 mM of EGTA, and 3 mg/mL of bovine serum albumin (BSA). Then, 10 μL of the diluted solution was added in a 96-well assay plate. Moreover, 50 μL of PDE4 (enzyme preparation) diluted 1:375 in the reaction buffer solution was added, and then 40 μL of [2,8-^3H]-adenosine-3′,5′-cyclic phosphate triethylammonium salt diluted 1:1000 in the reaction buffer solution was added. The mixture was allowed to stand at room temperature for 120 minutes. Thereafter, […] of RNA binding YSi-SPA beads suspension containing ZnSO4 was added and the mixture was allowed to stand at room temperature for 15 minutes, followed by adsorption of the enzyme reaction product to the beads. After that, the radioactivity was measured using a liquid scintillation counter for a 96-well plate. The mixture without the enzyme preparation added but only the reaction buffer solution added is a blank, and the mixture with the enzyme preparation added and only dimethyl sulfoxide added instead of the test compound is a control.
In addition, the PDE4 inhibitory activity (concentration that inhibits PDE4 activity by 50%=concentration for the inhibition rate of 50% (IC50)) of the test compound was calculated from the inhibition curves based on the inhibition rates for various concentrations of the test compound.

Row | Structure (SMILES) | IC50 [nM]
1 | COC(c1ccc(-c2nccs2)c2oc(N3CC4CCC(C3)N4)nc12)C(F)F (centres unmarked) [Example 131, 2-(3,8-Diazabicyclo[3.2.1]octan-3-yl)-4-(2,2-difluoro-1-methoxyethyl)-7-(thiazol-2-yl)benzo[d]oxazole] | < 100
2 | CCOC(c1cc(-c2nccs2)c2oc(N3CC4CCC(C3)N4)nc2c1)C(F)(F)F (centres unmarked) [Example 148, 2-(3,8-Diazabicyclo[3.2.1]octan-3-yl)-5-(1-ethoxy-2,2,2-trifluoroethyl)-7-(thiazol-2-yl)benzo[d]oxazole] | < 100
3 | CC(=O)c1cc(-c2nccs2)c2oc(N3CC4CC(C3)N4)nc2c1C(F)(F)F [Example 180, 1-(2-(3,6-Diazabicyclo[3.1.1]heptan-3-yl)-7-(thiazol-2-yl)-4-(trifluoromethyl)benzo[d]oxazol-5-yl)ethan-1-one] | < 100
4 | CCOC(=O)c1ccc(-c2nccs2)c2oc(N3CC4CCCC(C3)N4)nc12 [Example 114, Ethyl 2-(3,9-diazabicyclo[3.3.1]nonan-3-yl)-7-(thiazol-2-yl)benzo[d]oxazole-4-carboxylate] | < 100
5 | OC(c1ccc(-c2nccs2)c2oc(N3CC4CC(C3)N4)nc12)C(F)(F)F (centres unmarked) [Example 121, 1-(2-(3,6-Diazabicyclo[3.1.1]heptan-3-yl)-7-(thiazol-2-yl)benzo[d]oxazol-4-yl)-2,2,2-trifluoroethan-1-ol] | < 100
6 | COc1ccc(-c2nccs2)c2oc(N3CC4CC(C3)N4)nc12 [Example 76, 2-(3,6-Diazabicyclo[3.1.1]heptan-3-yl)-4-methoxy-7-(thiazol-2-yl)benzo[d]oxazole] | < 100
7 | CC(=O)Nc1ccc(-c2nccs2)c2oc(N3CC4CCCC(C3)N4)nc12 [Example 34, N-(2-(3,9-Diazabicyclo[3.3.1]nonan-3-yl)-7-(thiazol-2-yl)benzo[d]oxazol-4-yl)acetamide] | < 100
8 | OC(c1cc(-c2nccs2)c2oc(N3CC4CCC(C3)N4)nc2c1)C(F)(F)F (centres unmarked) [Example 139, 1-(2-(3,8-Diazabicyclo[3.2.1]octan-3-yl)-7-(thiazol-2-yl)benzo[d]oxazol-5-yl)-2,2,2-trifluoroethan-1-ol] | < 100
9 | Clc1ccc(-c2nccs2)c2oc(N3CC4CCC(C3)N4)nc12 [Example 36, 2-(3,8-Diazabicyclo[3.2.1]octan-3-yl)-4-chloro-7-(thiazol-2-yl)benzo[d]oxazole] | < 100
10 | OCC(CO)COc1cc(-c2nccs2)c2oc(N3CC4CCC(C3)N4)nc2c1 [Example 71, 2-(((2-(3,8-Diazabicyclo[3.2.1]octan-3-yl)-7-(thiazol-2-yl)benzo[d]oxazol-5-yl)oxy)methyl)propane-1,3-diol] | < 100
11 | CCOC(=O)c1cc(-n2cccn2)c2oc(N3CC4CCCC(C3)N4)nc2c1 [Example 93, Ethyl 2-(3,9-diazabicyclo[3.3.1]nonan-3-yl)-7-(1H-pyrazol-1-yl)benzo[d]oxazole-5-carboxylate] | 100 to 1000
12 | CC(O)COC(c1cc(-c2nccs2)c2oc(N3CC4CCC(C3)N4)nc2c1)C(F)(F)F (centres unmarked) [Example 155, 1-(1-(2-(3,8-Diazabicyclo[3.2.1]octan-3-yl)-7-(thiazol-2-yl)benzo[d]oxazol-5-yl)-2,2,2-trifluoroethoxy)propan-2-ol] | < 100
13 | FC(F)(F)Oc1cc(-c2nccs2)c2oc(N3CC4CC(C3)N4)nc2c1 [Example 56, 2-(3,6-Diazabicyclo[3.1.1]heptan-3-yl)-7-(thiazol-2-yl)-5-(trifluoromethoxy)benzo[d]oxazole] | < 100
14 | O=C(c1cc(-c2nccs2)c2oc(N3CC4CCC(C3)N4)nc2c1)N1CCCCC1 [Example 96, (2-(3,8-Diazabicyclo[3.2.1]octan-3-yl)-7-(thiazol-2-yl)benzo[d]oxazol-5-yl)(piperidin-1-yl)methanone] | < 100
15 | CC(=O)Nc1cc(-c2nccs2)c2oc(N3CC4CCCC(C3)N4)nc2c1 [Example 48, N-(2-(3,9-diazabicyclo[3.3.1]nonan-3-yl)-7-(thiazol-2-yl)benzo[d]oxazol-5-yl)acetamide] | < 100
16 | COCC(O)COc1ccc(-c2nccs2)c2oc(N3CC4CCC(C3)N4)nc12 (centres unmarked) [Example 83, 1-((2-(3,8-Diazabicyclo[3.2.1]octan-3-yl)-7-(thiazol-2-yl)benzo[d]oxazol-4-yl)oxy)-3-methoxypropan-2-ol] | < 100
17 | FC(F)(F)c1c(Cl)cc(-c2nccs2)c2oc(N3CC4COCC(C3)N4)nc12 [Example 19, 7-(5-Chloro-7-(thiazol-2-yl)-4-(trifluoromethyl)benzo[d]oxazol-2-yl)-3-oxa-7,9-diazabicyclo[3.3.1]nonane] | < 100
18 | COCCOc1cc(-c2nccs2)c2oc(N3CC4CCC(C3)N4)nc2c1 [Example 69, 2-(3,8-Diazabicyclo[3.2.1]octan-3-yl)-5-(2-methoxyethoxy)-7-(thiazol-2-yl)benzo[d]oxazole] | < 100

same assay, conditions: scintillation proximity assay; read-out: PDE4 Inhibitory Activity (Evaluation 1; concentration for the inhibition rate of 50%)

Row | Structure (SMILES) | IC50 [nM]
19 | CC(C)(O)CC(F)(F)Oc1ccc(-c2nccs2)c2oc(N3CC4CC(C3)N4)nc12 [Example 295, 4-((2-(3,6-Diazabicyclo[3.1.1]heptan-3-yl)-7-(thiazol-2-yl)benzo[d]oxazol-4-yl)oxy)-4,4-difluoro-2-methylbutan-2-ol] | < 100
20 | FC(F)Oc1ccc(-c2nccs2)c2oc(N3CC4CC(C3)N4)nc12 [Example 278, 2-(3,6-Diazabicyclo[3.1.1]heptan-3-yl)-4-(difluoromethoxy)-7-(thiazol-2-yl)benzo[d]oxazole] | < 100
21 | COC1(COC(c2ccc(-c3nccs3)c3oc(N4CC5CC(C4)N5)nc23)C(F)(F)F)CC1 (centres unmarked) [Example 282, 2-(3,6-Diazabicyclo[3.1.1]heptan-3-yl)-7-(thiazol-2-yl)-4-(2,2,2-trifluoro-1-((1-methoxycyclopropyl)methoxy)ethyl)benzo[d]oxazole] | < 100
22 | CC(C)(O)C(C)(C)OC(c1ccc(-c2nccs2)c2oc(N3CC4CC(C3)N4)nc12)C(F)(F)F (centres unmarked) [Example 280, 3-(1-(2-(3,6-Diazabicyclo[3.1.1]heptan-3-yl)-7-(thiazol-2-yl)benzo[d]oxazol-4-yl)-2,2,2-trifluoroethoxy)-2,3-dimethylbutan-2-ol] | < 100
23 | COC(C)(C)COC(c1ccc(-c2nccs2)c2oc(N3CC4CC(C3)N4)nc12)C(F)(F)F (centres unmarked) [Example 281, 2-(3,6-Diazabicyclo[3.1.1]heptan-3-yl)-7-(thiazol-2-yl)-4-(2,2,2-trifluoro-1-(2-methoxy-2-methylpropoxy)ethyl)benzo[d]oxazole] | < 100
24 | O=C(c1cc(-c2nccs2)c2oc(N3CC4CCC(C3)N4)nc2c1OC(F)(F)F)N1CC(O)(C(F)(F)F)C1 [Example 194, (2-(3,8-Diazabicyclo[3.2.1]octan-3-yl)-7-(thiazol-2-yl)-4-(trifluoromethoxy)benzo[d]oxazol-5-yl)(3-hydroxy-3-(trifluoromethyl)azetidin-1-yl)methanone] | 100 to 1000
25 | CC(C)(O)C(F)(F)Oc1ccc(-c2cscn2)c2oc(N3CC4CC(C3)N4)nc12 [Example 307, 1-((2-(3,6-Diazabicyclo[3.1.1]heptan-3-yl)-7-(thiazol-4-yl)benzo[d]oxazol-4-yl)oxy)-1,1-difluoro-2-methylpropan-2-ol] | < 100
26 | c1csc(-c2ccc(C3CC3)c3nc(N4CC5CC(C4)N5)oc23)n1 [Example 344, 2-(3,6-Diazabicyclo[3.1.1]heptan-3-yl)-4-cyclopropyl-7-(thiazol-2-yl)benzo[d]oxazole] | < 100
27 | OCC(F)(F)Oc1ccc(-n2cccn2)c2oc(N3CC4CC(C3)N4)nc12 [Example 320, 2-((2-(3,6-Diazabicyclo[3.1.1]heptan-3-yl)-7-(1H-pyrazol-1-yl)benzo[d]oxazol-4-yl)oxy)-2,2-difluoroethan-1-ol] | < 100
28 | CC(C)(O)C(F)(F)OC(c1ccc(-c2nccs2)c2oc(N3CC4CC(C3)N4)nc12)C(F)(F)F (centres unmarked) [Example 257, 1-(1-(2-(3,6-Diazabicyclo[3.1.1]heptan-3-yl)-7-(thiazol-2-yl)benzo[d]oxazol-4-yl)-2,2,2-trifluoroethoxy)-1,1-difluoro-2-methylpropan-2-ol] | < 100
29 | CC(C)(O)c1cc(-c2nccs2)c2oc(N3CC4CCC(C3)N4O)nc2c1OC(F)(F)F [Example 368, 3-(5-(2-Hydroxypropan-2-yl)-7-(thiazol-2-yl)-4-(trifluoromethoxy)benzo[d]oxazol-2-yl)-3,8-diazabicyclo[3.2.1]octan-8-ol] | 100 to 1000
30 | ON1C2CCC1CN(c1nc3c(OC(F)(F)F)c(Cl)cc(-c4nccs4)c3o1)C2 [Example 375, 3-(5-Chloro-7-(thiazol-2-yl)-4-(trifluoromethoxy)benzo[d]oxazol-2-yl)-3,8-diazabicyclo[3.2.1]octan-8-ol] | < 100
31 | FC(F)(/C=C/c1cccnc1)Oc1ccc(-c2nccs2)c2oc(N3CC4CC(C3)N4)nc12 [Example 406, (E)-2-(3,6-diazabicyclo[3.1.1]heptan-3-yl)-4-((1,1-difluoro-3-(pyridin-3-yl)allyl)oxy)-7-(thiazol-2-yl)benzo[d]oxazole] | < 100
32 | COC(C)(C)c1cc(-c2cscn2)c2oc(N3CC4CC(C3)N4)nc2c1OC(F)(F)F [Example 287, 2-(3,6-Diazabicyclo[3.1.1]heptan-3-yl)-5-(2-methoxypropan-2-yl)-7-(thiazol-4-yl)-4-(trifluoromethoxy)benzo[d]oxazole] | < 100
